For one data set, the system named is Influenza A/PC/1/73. Briefly: microbe, parasite or virus in culture. In kind it is cell-based. The settings on record: NHBE.
A further data set relates to Influenza B/LEE/40. Briefly: microbe, parasite or virus in culture. In kind it is cell-based. The note with it: NHBE.
Data set [1] can be described thus: in vitro. The settings on record: human.
The next data set relates to HIV-2 CDC 310319. Nature of the data set: Antiviral assay against HIV-2 isolate in fresh human PBMCs (RT endpoint). The settings on record: Human immunodeficiency virus 2, PBMC.
In a further data set the test system is HIV-1 clinical isolates. Briefly: Antiviral assay against HIV-1 clinical isolates in fresh human PBMCs (RT endpoint).
For the next data set, the system named is HCV 2a Replicon. Nature of the data set: Anti-HCV activity, HCV 2a replicon. The note with it: Hepatitis C virus, Huh-7. (In general: In antiviral work, replicon cells carry a viral genome segment that copies itself.)
Data set [2] is described as follows: in vitro. The note with it: human. The source holds these as a separate data set.
The subject of the next data set is HCV 1b Replicon. Nature of the data set: Anti-HCV activity, HCV 1b replicon. The note with it: Hepatitis C virus, Huh-7.
A short description of data set [3]: in vitro. The settings on record: human. This is another data set of the same source.
A further data set relates to HIV-1 IIIb. Briefly: HIV breakthrough selection in MT-2 cells. The settings on record: MT-2, HIV-1 IIIb; FTC 4× EC95, EVG 5× EC95, BIC and DTG 2.5× and 5× EC95; up to day 32.
A further data set deals with HIV-1 BaL. The settings on record: primary CD4+ T-cells, 35 days, drug at tissue culture equivalent clinical Cmin (FTC 160 × EC50).
Data set [4] deals with NRTI-, NNRTI- and PI-Resistant HIV-1 Mutants. Nature of the data set: Antiviral activity against NRTI-, NNRTI- and PI-resistant HIV-1 mutants. In kind it is cell-based.
Another data set relates to HBV Production. Briefly: microbe, parasite or virus in culture. The note with it: Hepatitis B virus.
Data set [5] is described as follows: Cytotoxicity in AD38 cells. The note with it: human.
Data set [6] can be described thus: in vitro. The settings on record: human. The source holds these as a separate data set.
Data set [7] concerns HRV (mixture of HRV1A, HRV14, HRV16). Nature of the data set: microbe, parasite or virus in culture. In kind it is cell-based. The note with it: Human rhinovirus sp., H1-HeLa.
In another data set the test system is RSV strain A2. Nature of the data set: microbe, parasite or virus in culture. The format is cell-based, respiratory syncytial virus. The settings on record: read-out: EC50.

The term EC50 denotes the concentration that produces a half-maximal response. `Nc1nc2c(ncn2[C@@H]2O[C@H](CO)[C@@H](O)[C@H]2F)c(=O)[nH]1` [2'-FDG, 2′-fluoro-2′-deoxyguanosine]: the EC50 in the data set on Influenza A/PC/1/73 amounted to 6 µM; with Influenza B/LEE/40, 14 µM. Besides, in “in vitro [1]”, the CC50 was more than 100 µM.

Turning to `Cc1cn([C@H]2C[C@H](N=[N+]=[N-])[C@@H](CO)O2)c(=O)[nH]c1=O` [AZT, zidovudine], the EC50 in the data set on HIV-2 CDC 310319 worked out at 9.3 ± 4.6 nM; in the data set with HIV-1 clinical isolates (Human immunodeficiency virus 1, BAL, PBMC, HIV-1 subtype B isolate BaL, human PBMCs), 3.8 ± 0.6 nM; with HIV-1 clinical isolates (Human immunodeficiency virus 1, PBMC, HIV-1 subtype A isolate 92RW016, human PBMCs) it was 2 ± 0.3 nM; with HIV-1 clinical isolates (Human immunodeficiency virus 1, PBMC, HIV-1 subtype A isolate 92UG037, human PBMCs), 11.2 ± 3.7 nM; in the data set on HIV-1 clinical isolates (Human immunodeficiency virus 1, PBMC, HIV-1 subtype B isolate 89BZ_167, human PBMCs), 3.6 ± 0.8 nM; in the data set on HIV-1 clinical isolates (Human immunodeficiency virus 1, PBMC, HIV-1 subtype B isolate 91US001, human PBMCs) it was 5.5 ± 2.5 nM. The EC50 in the data set on HIV-1 clinical isolates (Human immunodeficiency virus 1, PBMC, HIV-1 subtype B isolate 91US004, human PBMCs) was 2.6 ± 1.5 nM; with HIV-1 clinical isolates (Human immunodeficiency virus 1, PBMC, HIV-1 subtype C isolate 93IN905, human PBMCs) it was 1.6 ± 0.7 nM; in the data set on HIV-1 clinical isolates (Human immunodeficiency virus 1, PBMC, HIV-1 subtype C isolate 98US_MSC5016, human PBMCs), 7.9 ± 4.4 nM; with HIV-1 clinical isolates (Human immunodeficiency virus 1, PBMC, HIV-1 subtype D isolate 98UG_57128, human PBMCs), 0.07 ± 0.03 nM; in the data set with HIV-1 clinical isolates (Human immunodeficiency virus 1, PBMC, HIV-1 subtype E isolate 96TH_M02138, human PBMCs), 5.5 ± 0.4 nM; with HIV-1 clinical isolates (Human immunodeficiency virus 1, PBMC, HIV-1 subtype E isolate 96TH_NI1046, human PBMCs) it was 2.3 ± 0.7 nM. Besides, a half-maximal effect with HIV-1 clinical isolates (Human immunodeficiency virus 1, PBMC, HIV-1 subtype F isolate 93BR020, human PBMCs) (EC50) was put at 8.1 ± 7.1 nM.

On to `C[C@@]1(O)[C@H](O)[C@@H](CO)O[C@H]1n1cnc2c(N)ncnc21` [Compound 2-CMeA, 2′-C-methyladenosine], for which the results for the half-maximal effective concentration (EC50) with HCV 2a Replicon and in the data set with HCV 1b Replicon were 301 nM and 112 nM, respectively. Further, the values for the CC50 in the data set “in vitro [2]” and in the data set “in vitro [3]” were 42.2 µM and more than 44 µM, respectively.

For the compound `Nc1nc(=O)n([C@@H]2CS[C@H](CO)O2)cc1F` [FTC, emtricitabine], the “day postinfection of HIV-1 breakthrough” value in the data set on HIV-1 IIIb worked out at 7 days. For the same compound, in the data set with HIV-1 BaL, the “Frequency of Viral Breakthrough with RAMs” value is recorded as 58% and the “p24+ Wells” value is 14/24. In data set [4] (Human immunodeficiency virus 1, WT, Table S7), this compound yielded an EC50 of 385 ± 225 nM. For the same compound, in [4] (NRTI resistant 6TAMs), the “EC50 Fold Change Relative to WT” value is 10.8 fold change. In the data set on HBV Production, this compound registered an EC50 of 20 nM. The compound further came in with a CC50 at 5 days in data set [5] of more than 50 µM.

Consider `CCOC(=O)/C=C/[C@H](C[C@@H]1CCNC1=O)NC(=O)[C@@H](CC(=O)[C@@H](NC(=O)c1cc(C)on1)C(C)C)Cc1ccc(F)cc1` [Rupintrivir, rupintrivir], for which the CC50 in the data set “in vitro [6]” was more than 10 µM. Further, the EC50 in data set [7] stood at 30 nM.

Regarding `O=C(NC1CC1)c1cc2c(s1)-c1ccccc1N(C(=O)c1ccc(NC(=O)c3ccccc3-c3ccccc3)cc1)CC2` [YM-53403], the CC50 in the data set with HEp-2 Cells is more than 50 µM. For the same compound, the EC50 in the data set on RSV strain A2 worked out at 350 nM.

The values are drawn from PMC5118987 (Antimicrobial Agents and Chemotherapy, 2016).
